{"source": "patent US10961215B2", "about": "“N-aryl and N-heteroaryl piperidine derivatives as liver X receptor beta agonists, compositions, and their use” (Merck Sharp & Dohme Corp., priority 2016, dated 2021)", "key": {"[1]": {"target": "T1, GST tagged LXRbeta LBD (ligand binding domain) (Homo sapiens, UniProt P55055)", "T1 construct": "purchased Invitrogen pv4658.pps", "T1 sequence (P55055 222-460 limits assumed)": "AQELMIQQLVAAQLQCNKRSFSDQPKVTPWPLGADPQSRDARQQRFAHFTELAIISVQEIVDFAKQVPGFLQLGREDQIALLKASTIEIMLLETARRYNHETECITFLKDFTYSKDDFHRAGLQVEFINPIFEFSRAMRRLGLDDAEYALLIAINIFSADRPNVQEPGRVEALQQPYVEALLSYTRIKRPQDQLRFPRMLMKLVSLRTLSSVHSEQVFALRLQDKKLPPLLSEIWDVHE", "test": "LanthaScreen TR-FRET Liver X Receptor Coactivator Assay, LXR beta-LBD (co-activator recruitment; IP and % Emax relative to T0901317)", "assay_type": "biochemical", "conditions": "for EC50: Inflection Point of co-activator recruitment, LXR beta-LBD, TR-FRET; for Emax: efficacy at max dose in relation to reference T0901317, LXR beta-LBD, read-out: LXR beta actiivty at max dose (%)", "procedure,_shortened": "(§1)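 Agonist-induced recruitment of a fluorescein-tagged coactivator peptide to the LBD is detected via terbium anti-GST TR-FRET.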"}, "[2]": {"target": "T2, GST tagged LXRalpha LBD (ligand binding domain) (Homo sapiens, UniProt Q13133)", "T2 construct": "purchased Invitrogen pv4655", "T2 sequence (Q13133 209-447 limits assumed)": "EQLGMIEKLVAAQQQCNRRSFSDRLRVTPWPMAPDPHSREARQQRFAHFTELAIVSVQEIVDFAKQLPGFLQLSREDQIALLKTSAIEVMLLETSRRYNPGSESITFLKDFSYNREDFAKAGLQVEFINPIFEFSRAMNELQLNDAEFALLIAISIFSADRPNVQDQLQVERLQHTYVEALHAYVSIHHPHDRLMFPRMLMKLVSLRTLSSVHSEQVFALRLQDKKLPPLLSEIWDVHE", "test": "LanthaScreen TR-FRET Liver X Receptor Coactivator Assay, LXR alpha-LBD (co-activator recruitment; IP and % Emax relative to T0901317)", "assay_type": "biochemical", "conditions": "for LXR alpha IP (nM) / EC50: Inflection Point of co-activator recruitment, LXR alpha-LBD, TR-FRET; for Emax: efficacy at max dose in relation to reference T0901317, LXR alpha-LBD, read-out: LXR alpha actiivty at max dose (%)", "procedure,_shortened": "as §1"}}}
{"smiles": "CN(C)C(=O)c1ccc(N2CCC([C@H]3C[C@H]3CN(C)C(=O)[C@](O)(c3cccc(C4CC4)c3)C(F)(F)F)CC2)nc1Cl", "note": "[Example 15-5, 2-chloro-6-(4-((1R,2R)-2-(((R)-2-(3-cyclopropylphenyl)-3,3,3-trifluoro-2-hydroxy-N-methylpropanamido)methyl)cyclopropyl)piperidin-1-yl)-N,N-dimethylnicotinamide]", "values": [{"measurement": "EC50", "setting": "[1]", "value": 16, "unit": "nM"}, {"measurement": "Emax", "setting": "[1]", "value": 75, "unit": "%"}, {"measurement": "LXR alpha IP (nM)", "setting": "[2]", "value": "No IP"}, {"measurement": "Emax", "setting": "[2]", "value": 18, "unit": "%"}]}
{"smiles": "CN(C)C(=O)c1ccc(N2CCC(CCCNC(=O)[C@]3(c4ccccc4)CCCO3)CC2)nc1Cl", "note": "[Example 5-19, (R)-2-chloro-N,N-dimethyl-6-(4-(3-(2-phenyltetrahydrofuran-2-carboxamido)propyl)piperidin-1-yl)nicotinamide]", "values": [{"measurement": "EC50", "setting": "[1]", "value": 160, "unit": "nM"}, {"measurement": "Emax", "setting": "[1]", "value": 104, "unit": "%"}, {"measurement": "EC50", "setting": "[2]", "value": 2340, "unit": "nM"}, {"measurement": "Emax", "setting": "[2]", "value": 36, "unit": "%"}]}
{"smiles": "CN(C)C(=O)c1ccc(N2CCC(CCCN(C)C(=O)[C@]3(C(F)(F)F)CCCO3)CC2)nc1Cl", "note": "[Example 1-8, (S)-2-chloro-N,N-dimethyl-6-(4-(3-(N-methyl-2-(trifluoromethyl)-tetrahydrofuran-2-carboxamido)propyl)piperidin-1-yl)nicotinamide]", "values": [{"measurement": "EC50", "setting": "[1]", "value": 106, "unit": "nM"}, {"measurement": "Emax", "setting": "[1]", "value": 81, "unit": "%"}, {"measurement": "EC50", "setting": "[2]", "value": 1770, "unit": "nM"}, {"measurement": "Emax", "setting": "[2]", "value": 51, "unit": "%"}]}
{"smiles": "COc1cccc([C@@](O)(C(=O)NC[C@@H](C)CC2CCN(c3ccc(C(=O)N(C)C)c(Cl)n3)CC2)C(F)(F)F)c1", "note": "[Example 3-4, 2-chloro-N,N-dimethyl-6-(4-((S)-2-methyl-3-((R)-3,3,3-trifluoro-2-hydroxy-2-(3-methoxyphenyl)propanamido)propyl)piperidin 1-yl)nicotinamide]", "values": [{"measurement": "EC50", "setting": "[1]", "value": 134, "unit": "nM"}, {"measurement": "Emax", "setting": "[1]", "value": 87, "unit": "%"}, {"measurement": "LXR alpha IP (nM)", "setting": "[2]", "value": "No IP"}, {"measurement": "Emax", "setting": "[2]", "value": 19, "unit": "%"}]}
{"smiles": "COc1cccc([C@@](O)(C(=O)N[C@H](C)CCC2CCN(c3ccc(C(=O)N(C)C)c(Cl)n3)CC2)C(F)(F)F)c1", "note": "[Example 6-2, 2-chloro-N,N-dimethyl-6-(4-((R)-3-((R)-3,3,3-trifluoro-2-hydroxy-2-(3-methoxyphenyl)propanamido)butyl)piperidin-1-yl)nicotinamide]", "values": [{"measurement": "EC50", "setting": "[1]", "value": 98, "unit": "nM"}, {"measurement": "Emax", "setting": "[1]", "value": 116, "unit": "%"}, {"measurement": "EC50", "setting": "[2]", "value": 2440, "unit": "nM"}, {"measurement": "Emax", "setting": "[2]", "value": 29, "unit": "%"}]}
{"smiles": "CN(C)C(=O)c1ccc(N2CCC(CCCN(C)C(=O)[C@@](O)(c3ccccc3)C3CC3)CC2)nc1Cl", "note": "[Example 1-25, (S)-2-chloro-6-(4-(3-(2-cyclopropyl-2-hydroxy-N-methyl-2-phenylacetamido)propyl)piperidin-1-yl)-N,N-dimethylnicotinamide]", "values": [{"measurement": "EC50", "setting": "[1]", "value": 110, "unit": "nM"}, {"measurement": "Emax", "setting": "[1]", "value": 71, "unit": "%"}, {"measurement": "EC50", "setting": "[2]", "value": 3360, "unit": "nM"}, {"measurement": "Emax", "setting": "[2]", "value": 26, "unit": "%"}]}
{"smiles": "CN(C)C(=O)c1ccc(N2CCC3(CC2)CC3CCN(C)C(=O)[C@](O)(c2cccc(OC(F)(F)F)c2)C(F)(F)F)cc1Cl", "note": "(stereo in doubt) [Example 7-4, 2-chloro-N,N-dimethyl-4-((R)-1-(2-((R)-3,3,3-trifluoro-2-hydroxy-N-methyl-2-(3-(trifluoromethoxy)phenyl)propanamido)ethyl)-6-azaspiro[2.5]octan-6-yl) benzamide]", "values": [{"measurement": "EC50", "setting": "[1]", "value": 20, "unit": "nM"}, {"measurement": "Emax", "setting": "[1]", "value": 64, "unit": "%"}, {"measurement": "EC50", "setting": "[2]", "value": 826, "unit": "nM"}, {"measurement": "Emax", "setting": "[2]", "value": 26, "unit": "%"}]}
{"smiles": "COc1cccc([C@@](O)(C(=O)N(C)[C@H]2C[C@H](C3CCN(c4ccc(C(=O)N(C)C)c(Cl)n4)CC3)C2)C(F)(F)F)c1", "note": "[Example 17-3, Trans-2-chloro-N,N-dimethyl-6-(4-(-3-((R)-3,3,3-trifluoro-2-hydroxy-2-(3-methoxyphenyl)-N-methylpropanamido)cyclobutyl)piperidin-1-yl)nicotinamide]", "values": [{"measurement": "EC50", "setting": "[1]", "value": 27, "unit": "nM"}, {"measurement": "Emax", "setting": "[1]", "value": 65, "unit": "%"}, {"measurement": "LXR alpha IP (nM)", "setting": "[2]", "value": "No IP"}, {"measurement": "Emax", "setting": "[2]", "value": 12, "unit": "%"}]}
{"smiles": "CN(C)C(=O)c1ccc(N2CCC([C@@H]3C[C@H]3CN(C)C(=O)[C@](O)(c3ccccc3)C(F)(F)F)CC2)nc1Cl", "note": "[Example 15-15]", "values": [{"measurement": "EC50", "setting": "[1]", "value": 186, "unit": "nM"}, {"measurement": "Emax", "setting": "[1]", "value": 75, "unit": "%"}, {"measurement": "EC50", "setting": "[2]", "value": 6070, "unit": "nM"}, {"measurement": "Emax", "setting": "[2]", "value": 23, "unit": "%"}]}
